Data on 8 compounds can be found in PubChem BioAssay (NCI).

Among the test systems are HCT-15 colon; SW-620 colon; MOLT-4 leukemia; SF-268 CNS; K-562 leukemia; UACC-257 melanoma; COLO 205 colon; SK-MEL-2 melanoma; UACC-62 melanoma; UO-31 renal; SNB-19 CNS; ACHN renal; HS 578T breast; T-47D breast; HT29 colon; SK-MEL-5 melanoma; MDA-N; SF-295 CNS; CAKI-1 renal.
Experiment in all cases: NCI-60 cell line screen, 48 h

Molecules are shown by their SMILES.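 Cells were grown in 96-well plates and exposed to each compound for 48 hours at five concentrations; endpoints were interpolated linearly between bracketing concentrations, or set to the highest concentration if not reached. At the TGI there is no net growth.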

For the compound `COc1nc2c(c(=O)n1C)NC(C(O)C(O)CO)C=N2` (configuration not stated), the TGI in the assay on HCT-15 colon, in the assay on SW-620 colon, in the assay on MOLT-4 leukemia, in the assay on SF-268 CNS, in the assay with K-562 leukemia and with UACC-257 melanoma was more than 10 µM each time. Besides, the TGI in the assay with COLO 205 colon, in the assay with SK-MEL-2 melanoma, with UACC-62 melanoma, in the assay on UO-31 renal, in the assay on SNB-19 CNS and with ACHN renal was more than 10 µM in each case. Moreover, the TGI in the assay on HS 578T breast, in the assay with T-47D breast, in the assay on HT29 colon, in the assay on SK-MEL-5 melanoma, with MDA-N and in the assay on SF-295 CNS was more than 10 µM throughout. The compound further had a TGI in the assay with CAKI-1 renal of more than 10 µM.
As for `O=c1c2ncn(CCCl)c2n(-c2ccccc2)c(=S)n1-c1ccccc1`, the TGI in the assay on HCT-15 colon, in the assay with SW-620 colon, with MOLT-4 leukemia, in the assay on SF-268 CNS, with K-562 leukemia and with UACC-257 melanoma was more than 100 µM each time. Further, the TGI in the assay with COLO 205 colon, with SK-MEL-2 melanoma, in the assay with UACC-62 melanoma, in the assay with UO-31 renal, with SNB-19 CNS and in the assay on ACHN renal was more than 100 µM in each case. Besides, the TGI in the assay with HS 578T breast, with T-47D breast, in the assay with HT29 colon, with SK-MEL-5 melanoma, with MDA-N and with SF-295 CNS was more than 100 µM each time. This compound registered a TGI with CAKI-1 renal of more than 100 µM.
Consider `Oc1ccc2ccccc2c1Cc1c(O)ccc2ccccc12`, for which the TGI with HCT-15 colon is 32.7 µM; with SW-620 colon it was 39.9 µM; in the assay on MOLT-4 leukemia, 36.9 µM; with SF-268 CNS it was 31.1 µM; in the assay on K-562 leukemia, 32.8 µM; in the assay on UACC-257 melanoma it was 48.9 µM. Besides, the TGI in the assay on COLO 205 colon was 36.5 µM; in the assay with SK-MEL-2 melanoma, 41.7 µM; in the assay on UACC-62 melanoma, 29.4 µM; in the assay on UO-31 renal, 32.2 µM; with SNB-19 CNS, 36.7 µM; in the assay on ACHN renal, 33.8 µM. Besides, the TGI in the assay on HS 578T breast amounted to 34.4 µM; in the assay with T-47D breast, 56.4 µM; in the assay on HT29 colon it was 46.5 µM; in the assay with SK-MEL-5 melanoma, 32.1 µM; in the assay with MDA-N, 28.3 µM; with SF-295 CNS, 37.1 µM. In the assay with CAKI-1 renal, this compound returned a TGI of 33.9 µM.
Consider `c1ccc2c3nnc(c2c1)SCCSCCCSCCS3`, for which the TGI in the assay with HCT-15 colon, in the assay on SW-620 colon, with SF-268 CNS, with K-562 leukemia, in the assay on UACC-257 melanoma and in the assay with COLO 205 colon was more than 100 µM in each case. Moreover, the TGI in the assay with SK-MEL-2 melanoma is more than 100 µM; with UACC-62 melanoma it was more than 100 µM; in the assay on UO-31 renal, more than 100 µM; in the assay on SNB-19 CNS it was 76 µM; in the assay on ACHN renal, more than 100 µM; in the assay on HS 578T breast, more than 100 µM. The TGI in the assay with T-47D breast, with HT29 colon, with SK-MEL-5 melanoma, with MDA-N, in the assay with SF-295 CNS and in the assay on CAKI-1 renal was more than 100 µM throughout.
Take `CCOc1ccc2c(c1)NC(=O)C(C1OC(c3ccccc3)=CC1=O)S2` (configuration not stated): the TGI was 69.2 µM in the assay with HCT-15 colon; 88.8 µM in the assay with SW-620 colon; 63.1 µM with SF-268 CNS; 68.7 µM in the assay with K-562 leukemia; more than 100 µM with UACC-257 melanoma; 28.1 µM in the assay on COLO 205 colon. Further, the TGI was more than 100 µM in the assay on SK-MEL-2 melanoma; 35.1 µM in the assay on UACC-62 melanoma; 90.3 µM in the assay on UO-31 renal; more than 100 µM with SNB-19 CNS; more than 100 µM with ACHN renal; 86 µM in the assay on HS 578T breast. In addition, the TGI with T-47D breast is 36.3 µM; with HT29 colon, 39.6 µM; with SK-MEL-5 melanoma, 39.2 µM; in the assay on MDA-N, 77.4 µM; with SF-295 CNS, 83.5 µM; in the assay on CAKI-1 renal it was more than 100 µM.
Regarding `COc1ccc2[nH]c3c(C)c4cnccc4c(C)c3c2c1`, the TGI in the assay on HCT-15 colon was 3.4 µM; with SW-620 colon it was 3.4 µM; in the assay on MOLT-4 leukemia, more than 10 µM; with SF-268 CNS, more than 10 µM; with K-562 leukemia, more than 10 µM; in the assay on UACC-257 melanoma, more than 10 µM. For the same compound, the TGI in the assay on COLO 205 colon was 4.44 µM; in the assay with SK-MEL-2 melanoma it was more than 10 µM; in the assay with UACC-62 melanoma, more than 10 µM; in the assay with SNB-19 CNS, more than 10 µM; in the assay on ACHN renal, more than 10 µM; in the assay with HS 578T breast, more than 10 µM. The TGI with T-47D breast was more than 10 µM; in the assay on HT29 colon it was 3.41 µM; in the assay on SK-MEL-5 melanoma, more than 10 µM; with MDA-N it was 3.43 µM; in the assay on SF-295 CNS, more than 10 µM; in the assay with CAKI-1 renal, more than 10 µM.
In the case of `COc1ccc(C(=O)c2ccc(-n3c4ccccc4c4ccc5c(c43)C(=O)C=CC5=O)cc2)cc1`, the TGI was 6.07 µM in the assay with HCT-15 colon; more than 100 µM in the assay with MOLT-4 leukemia; 2.33 µM in the assay on SF-268 CNS; more than 100 µM in the assay on K-562 leukemia; 7.05 µM with UACC-257 melanoma; 9.34 µM in the assay with COLO 205 colon. The TGI in the assay with SK-MEL-2 melanoma is 11.3 µM; in the assay with UACC-62 melanoma it was 8.02 µM; in the assay on UO-31 renal it was 1.07 µM; with SNB-19 CNS, 11 µM; in the assay with ACHN renal, 1.8 µM; in the assay with HS 578T breast, 4.51 µM. The TGI in the assay on T-47D breast is more than 100 µM; with HT29 colon, 3.65 µM; in the assay on SK-MEL-5 melanoma, 12.9 µM; with MDA-N it was 7.89 µM; with SF-295 CNS, 17.1 µM; in the assay with CAKI-1 renal, 0.366 µM.
Take `COc1cccc(-c2cc(=O)c3cccnc3[nH]2)c1`: the TGI in the assay with HCT-15 colon, in the assay with SW-620 colon, in the assay with MOLT-4 leukemia, with SF-268 CNS, in the assay on K-562 leukemia and in the assay with UACC-257 melanoma was more than 100 µM each time. Also, the TGI in the assay with SK-MEL-2 melanoma, in the assay with UACC-62 melanoma, in the assay on UO-31 renal, in the assay on SNB-19 CNS, in the assay with ACHN renal and with HS 578T breast was more than 100 µM throughout. The TGI with T-47D breast was more than 100 µM; in the assay on HT29 colon, 0.561 µM; in the assay on SK-MEL-5 melanoma, 13.1 µM; in the assay on MDA-N, 0.0394 µM; in the assay on SF-295 CNS it was more than 100 µM; in the assay on CAKI-1 renal it was more than 100 µM.
